# Measurements as given in patent US4605614A, “Method for measuring plasmin” (Nitto Boseki Co., Ltd., priority 1981, dated 1986).
# What was measured:
# plasmin (pig) = plasmin (pig) (Sus scrofa, UniProt P06867); test: Km, Vmax and Vmax/Km of substrates for plasmin (pig); format: biochemical, Porcine (pig); details: for Vmax (× 10^-7): TABLE 2, CHA substrates, plasmin (pig), 2,6-xylenol 615 nm; for Relative ratio: TABLE 2, V/Km of each sample divided by that of S2251 (so in the source)
# Thrombin (TH) = Thrombin (TH) (Bos taurus, UniProt P00735); format: biochemical, Cow; details: TABLE 4, CHA substrates; So = 0.54; pH 8.4; 37° C., 10 minutes; 1.0 NIH/ml
# Thrombin (TH), sequence (P00735 44-625): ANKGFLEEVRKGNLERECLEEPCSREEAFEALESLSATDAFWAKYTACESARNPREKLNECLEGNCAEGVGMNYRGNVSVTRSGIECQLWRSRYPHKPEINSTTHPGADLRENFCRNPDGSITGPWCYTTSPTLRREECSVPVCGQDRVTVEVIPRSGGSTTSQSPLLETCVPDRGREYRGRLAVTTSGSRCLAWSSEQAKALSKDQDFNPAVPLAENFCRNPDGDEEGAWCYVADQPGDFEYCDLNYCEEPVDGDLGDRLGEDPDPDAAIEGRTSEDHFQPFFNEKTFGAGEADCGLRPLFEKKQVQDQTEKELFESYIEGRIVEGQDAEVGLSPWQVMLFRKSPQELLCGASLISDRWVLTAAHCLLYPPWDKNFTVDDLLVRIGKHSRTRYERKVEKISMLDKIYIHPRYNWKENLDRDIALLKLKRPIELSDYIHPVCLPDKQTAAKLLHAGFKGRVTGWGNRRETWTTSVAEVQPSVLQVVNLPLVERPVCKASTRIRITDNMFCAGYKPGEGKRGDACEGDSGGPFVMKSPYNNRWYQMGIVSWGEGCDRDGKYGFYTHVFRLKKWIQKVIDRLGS
# Experimental: (§1) The specificities of the novelly synthesized substrates were tested by reacting them with various enzymes respectively.
# (§2) (1) Substrate solution concentration: 35 mmole/liter H2 O
# (§3) (2) Buffer: Tris-hydrochloric acid buffer 50 mmole/l, NaCl 150 mmole/l (0.875%) was employed, and the pH for reaction was as follows depending on the enzyme.
# (§4) 2,6-Xylenol 7.0 mmole+NaIO4 1.5 mmole/0.2N KOH
# (§5) 0.5 ml of the buffer solution and 0.05 ml of the enzyme reagent were taken into a silicon-treated hard glass test tube or a plastic test tube, and preheated in a constant temperature bath at 37° C. for 5 minutes. Thereafter, 0.1 ml of the substrate solution was added to effect the enzymatic reaction at 37° C. for 10 minutes. Exactly after 10 minutes, 2.5 ml of the reaction terminating solution or the terminating and color developing reagent solution was added to terminate the enzymatic reaction, and after allowing to stand at 25° C. for 10 minutes, the absorbance at 405 nm or 645 nm was measured, in which [drawing 49]
# Plasmin (PL) = Plasmin (PL) (Sus scrofa, UniProt P06867); format: biochemical, Pig; details: TABLE 4, CHA substrates; So = 0.54; pH 7.4; 37° C., 10 minutes; 0.32 CU/ml
# Plasmin (PL), sequence (P06867 97-809): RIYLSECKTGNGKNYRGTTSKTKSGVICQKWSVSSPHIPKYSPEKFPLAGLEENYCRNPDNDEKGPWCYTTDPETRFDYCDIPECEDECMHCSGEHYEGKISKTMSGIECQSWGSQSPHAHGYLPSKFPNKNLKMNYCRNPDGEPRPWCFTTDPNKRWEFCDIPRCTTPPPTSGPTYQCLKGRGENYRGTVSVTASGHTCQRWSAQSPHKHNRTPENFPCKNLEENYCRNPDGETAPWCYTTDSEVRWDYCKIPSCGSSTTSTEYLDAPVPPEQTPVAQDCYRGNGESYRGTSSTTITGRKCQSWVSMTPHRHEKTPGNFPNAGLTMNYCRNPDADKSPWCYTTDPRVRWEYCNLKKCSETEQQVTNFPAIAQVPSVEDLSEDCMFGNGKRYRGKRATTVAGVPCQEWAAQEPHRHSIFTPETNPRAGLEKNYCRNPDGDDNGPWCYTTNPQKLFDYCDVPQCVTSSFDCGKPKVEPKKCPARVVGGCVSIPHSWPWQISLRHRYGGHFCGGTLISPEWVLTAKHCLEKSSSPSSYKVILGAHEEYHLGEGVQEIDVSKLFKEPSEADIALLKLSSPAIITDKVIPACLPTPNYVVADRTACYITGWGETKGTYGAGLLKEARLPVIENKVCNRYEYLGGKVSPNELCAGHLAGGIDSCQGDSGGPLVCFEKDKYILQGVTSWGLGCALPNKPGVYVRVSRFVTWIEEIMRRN
# Kallikrein (KL) = Kallikrein (KL) (Sus scrofa, UniProt P00752); format: biochemical, Pig; details: TABLE 4, CHA substrates; So = 0.54; pH 7.9; 37° C., 10 minutes; 1.0 BAEE-U/ml
# Kallikrein (KL), sequence (P00752 8-246): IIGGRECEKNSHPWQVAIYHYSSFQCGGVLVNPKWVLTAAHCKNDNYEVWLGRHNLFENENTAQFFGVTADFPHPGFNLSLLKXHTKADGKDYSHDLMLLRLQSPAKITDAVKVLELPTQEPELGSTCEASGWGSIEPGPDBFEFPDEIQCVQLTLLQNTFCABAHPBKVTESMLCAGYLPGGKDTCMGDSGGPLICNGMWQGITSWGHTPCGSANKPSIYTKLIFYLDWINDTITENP
# Experimental: as §1, §2, §3, §4, §5
# Factor-Xa (FXa) = Factor-Xa (FXa) (Bos taurus, UniProt P00743); format: biochemical, Cow; details: TABLE 4, CHA substrates; So = 0.54; pH 8.4; 37° C., 10 minutes; 0.4 U/ml
# Factor-Xa (FXa), sequence (P00743 41-180): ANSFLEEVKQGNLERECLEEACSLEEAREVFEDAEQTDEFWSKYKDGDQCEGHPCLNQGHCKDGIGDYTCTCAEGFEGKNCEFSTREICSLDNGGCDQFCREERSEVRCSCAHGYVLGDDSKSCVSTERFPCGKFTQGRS
# Factor-Xa (FXa), sequence (P00743 234-492): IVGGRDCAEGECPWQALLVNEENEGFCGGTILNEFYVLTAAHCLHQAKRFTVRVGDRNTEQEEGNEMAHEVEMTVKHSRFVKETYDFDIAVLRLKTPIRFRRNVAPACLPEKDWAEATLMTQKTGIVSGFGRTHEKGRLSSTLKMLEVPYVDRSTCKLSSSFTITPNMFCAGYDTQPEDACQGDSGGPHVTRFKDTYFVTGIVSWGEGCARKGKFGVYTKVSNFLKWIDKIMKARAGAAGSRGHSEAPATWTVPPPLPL
# Experimental: as §1, §2, §3, §4, §5
# Urokinase (UK) = Urokinase (UK) (Homo sapiens, UniProt P00749); format: biochemical; details: TABLE 4, CHA substrates; So = 0.54; pH 8.2; 37° C., 10 minutes; 1000 IU/ml
# Experimental: as §1, §2, §3, §4, §5
# plasmin (pig), sequence (P06867 97-809): as the sequence (P06867 97-809) above
Compound,Vmax (× 10^-7) (plasmin (pig)),Relative ratio (plasmin (pig)),"Selectivity TH, absorbance (O.D.) at 645 nm (Thrombin (TH))","Selectivity PL, absorbance (O.D.) at 645 nm (Plasmin (PL))","Selectivity KL, absorbance (O.D.) at 645 nm (Kallikrein (KL))","Selectivity FXa, absorbance (O.D.) at 645 nm (Factor-Xa (FXa))","Selectivity UK, absorbance (O.D.) at 645 nm (Urokinase (UK))"
NCCCC[C@H](NC(=O)[C@H](Cc1ccccc1)NC(=O)[C@H](N)CCCCNC(=O)Cc1ccccc1)C(=O)Nc1ccc(O)c(C(=O)O)c1 [NPC-16],26.986 × 10^-7,68.162,0 O.D.,0.325 O.D.,0.012 O.D.,0.002 O.D.,0.001 O.D.
NCCCC[C@H](NC(=O)[C@H](Cc1ccccc1)NC(=O)[C@H](N)CCCCNS(=O)(=O)c1cccc2ccccc12)C(=O)Nc1ccc(O)c(C(=O)O)c1 [NPC-17],15.803 × 10^-7,23.874,0 O.D.,0.192 O.D.,0.002 O.D.,0 O.D.,0 O.D.
Cc1ccc(S(=O)(=O)NCCC[C@@H](N)C(=O)N[C@@H](Cc2ccccc2)C(=O)N[C@@H](CCCCN)C(=O)Nc2ccc(O)c(C(=O)O)c2)cc1 [NPC-18],35.252 × 10^-7,58.558,0 O.D.,0.392 O.D.,0.019 O.D.,0.002 O.D.,0.001 O.D.
CCCC(=O)NCCCC[C@@H](N)C(=O)N[C@@H](Cc1ccccc1)C(=O)N[C@@H](CCCCN)C(=O)Nc1ccc(O)c(C(=O)O)c1 [NPC-19],8.266 × 10^-7,31.117,0.001 O.D.,0.118 O.D.,0.004 O.D.,0.002 O.D.,0.001 O.D.
NCCCC[C@H](NC(=O)[C@H](Cc1ccccc1)NC(=O)[C@H](N)CCCCNC(=O)OCc1ccccc1)C(=O)Nc1ccc(O)c(C(=O)O)c1 [NPC-20],40.725 × 10^-7,74.040,0 O.D.,0.467 O.D.,0.019 O.D.,0.006 O.D.,0.004 O.D.
CC(C)OC(=O)C[C@@H](N)C(=O)N[C@@H](Cc1ccccc1)C(=O)N[C@@H](CCCCN)C(=O)Nc1ccc(O)c(C(=O)O)c1 [NPC-21],6.802 × 10^-7,17.414,0 O.D.,0.093 O.D.,0.010 O.D.,0.003 O.D.,0.004 O.D.
NCCCC[C@H](NC(=O)[C@H](Cc1ccccc1)NC(=O)[C@H](N)CC(=O)OC1CCCCC1)C(=O)Nc1ccc(O)c(C(=O)O)c1 [NPC-22],17.991 × 10^-7,42.715,0 O.D.,0.213 O.D.,0.023 O.D.,0.015 O.D.,0.026 O.D.
